According to patent publication US6844358B2, “Phenyl oxo-acetic acids useful in the treatment of insulin resistance and hyperglycemia” (Wyeth, priority 1998, dated 2005):
Read-outs that look alike come from different tables or passages of the source.

Experiments:
[1] = molecular target: T1, recombinant rat protein tyrosine phosphatase, PTP1B (rPTP1B) (Rattus norvegicus, UniProt P20417); type: biochemical; conditions: rPTP1B; for IC50: read-out: IC50
T1 sequence (P20417 1-432): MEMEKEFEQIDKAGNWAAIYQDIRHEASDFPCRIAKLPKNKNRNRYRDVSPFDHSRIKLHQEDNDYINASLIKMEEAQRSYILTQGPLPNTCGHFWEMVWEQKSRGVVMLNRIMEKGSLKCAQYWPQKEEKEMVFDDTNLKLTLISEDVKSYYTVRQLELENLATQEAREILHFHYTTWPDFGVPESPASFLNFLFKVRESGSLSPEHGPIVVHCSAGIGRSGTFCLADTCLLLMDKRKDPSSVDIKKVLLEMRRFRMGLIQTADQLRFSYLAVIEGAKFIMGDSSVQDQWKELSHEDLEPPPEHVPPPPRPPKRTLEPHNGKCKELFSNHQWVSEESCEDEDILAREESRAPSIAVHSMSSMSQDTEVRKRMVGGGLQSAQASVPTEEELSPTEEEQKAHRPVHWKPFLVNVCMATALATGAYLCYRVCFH

[2] = molecular target: rat hepatic microsomal PTPases; conditions: rat hepatic microsomal PTPase; for IC50: dodecaphosphopeptide substrate 50 uM; for % Change from Control at 50 μM: 50 μM compound
diabetic (ob/ob) mice = assay: Blood glucose lowering activity in diabetic (ob/ob) mice; type: in vivo; conditions: Mus musculus, po
Experimental: The procedures used and results obtained are briefly described below. […]
In each test procedure, mice [Male or female ob/ob (C57 B1/6J) and their lean litermates (ob/+ or +/+, Jackson Laboratories) ages 2 to 5 months (10 to 65 g)] of a similar age were randomized according to body weight into 4 groups of 10 mice. The mice were housed 5 per cage and are maintained on normal rodent chow with water ad libitum. Mice received test compound daily by gavage (suspended in 0.5 ml of 0.5% methyl cellulose); dissolved in the drinking water; or admixed in the diet. The dose of compounds given ranges from 2.5 to 200 mg/kg body weight/day. The dose is calculated based on the fed weekly body weight and is expressed as active moiety. […] Control mice received vehicle only.
On the morning of Day 4, 7 or 14 two drops of blood (approximetly 50 ul) were collected into sodium fluoride containing tubes either from the tail vein or after decapitation. For those studies in which the compound was administered daily by gavage the blood samples were collected two hours after compound administration. […]
Analysis of variance followed by Dunett's Comparison Test (one-tailed) are used to estimate the significant difference between the plasma glucose values from the control group and the individual compound treated groups (CMS SAS Release 5.18).

[3] = molecular target: T2, Human recombinant PTP1B (hPTP1B) (Homo sapiens, UniProt P18031); type: biochemical; conditions: hPTP1B
T2 construct: made in house
T2 sequence (P18031 1-435): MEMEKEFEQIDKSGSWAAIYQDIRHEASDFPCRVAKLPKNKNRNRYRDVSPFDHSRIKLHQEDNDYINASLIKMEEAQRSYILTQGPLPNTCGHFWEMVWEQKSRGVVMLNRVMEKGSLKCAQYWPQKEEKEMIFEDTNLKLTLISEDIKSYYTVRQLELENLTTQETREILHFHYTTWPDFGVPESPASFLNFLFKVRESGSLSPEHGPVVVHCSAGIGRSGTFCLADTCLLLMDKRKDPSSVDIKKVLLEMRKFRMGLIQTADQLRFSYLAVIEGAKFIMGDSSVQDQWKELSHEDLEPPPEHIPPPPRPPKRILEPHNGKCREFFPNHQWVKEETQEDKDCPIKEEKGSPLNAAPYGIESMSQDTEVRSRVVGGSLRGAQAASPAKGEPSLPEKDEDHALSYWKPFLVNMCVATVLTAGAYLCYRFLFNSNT

[4] = tested on: Human recombinant PTP1B (hPTP1B); type: biochemical
[5] = 96 h, plasma glucose on Day 4, 7 or 14, suffix a = no significant activity at this dose, read-out: % Change Glucose from Vehicle
[6] = suffix a = no significant activity at this dose, read-out: % Change Insulin from Vehicle

Row | % change from control at 10 μM ([1]; 10 μM compound) | IC50 [2] | IC50 [3] | melting point | IC50 [1] | % Change from Control at 50 μM [2] | % change from control at 10 μM ([4]; reference standards, enzyme form (rPTP1B/hPTP1B) not given) | Compound | change in vivo at 100 mg/kg (diabetic (ob/ob) mice; [5]) | change in vivo at 100 mg/kg (diabetic (ob/ob) mice; [6]) | % change from control at 10 μM [4]
1 | −99 (rPTP1B) % | 22.7 µM | 1.4 µM | 118 to 119 °C |  |  |  | CCCCc1oc2ccccc2c1Cc1cc(Br)c(OCC(=O)O)c(Br)c1 [Example 7] | -29.4% | -13.1% | 
2 |  | 33.9 µM | 1.94 µM | 155.5 to 156.5 °C | 3.97 µM |  |  | O=C(c1cc(Br)c(O)c(Br)c1)c1c(Cc2ccccc2)sc2ccccc12 [Example 11, (2-Benzyl-benzo[b]thiophen-3-yl)-(3,5-dibromo-4-hydroxy-phenyl)-methanone] | -30.3% | -53.2% | 
3 |  | 15.3 µM | 2.6 µM |  | 0.19 µM |  |  | CCCCc1oc2ccccc2c1C(=O)c1cc(I)c(O)c(I)c1 [Example 16, (2-Butyl-benzofuran-3-yl)-(4-hydroxy-3,5-diiodo-phenyl)-methanone] | -51.8% | -73.7% | 
4 |  |  | 1.15 µM | 56 to 58 °C |  | −77% |  | CCCCc1oc2ccccc2c1C(=O)c1cc(Br)c(O[C@H](Cc2ccccc2)C(=O)O)c(Br)c1 [Example 22, (R)-2-[2,6-dibromo-4-(2-butyl-benzofuran-3-carbonyl)-phenoxy]-3-phenyl-propionic acid] |  |  | 
5 |  |  | 0.87 µM | 225 to 226 °C |  | −85% |  | CCCCc1oc2ccccc2c1Cc1cc(Br)c(O[C@H](Cc2ccccc2)C(=O)O)c(Br)c1 [Example 23, (R)-2-[2,6-dibromo-4-(2-butyl-benzofuran-3-ylmethyl)-phenoxy]-3-phenyl-propionic acid] |  |  | 
6 |  |  |  |  |  |  |  | [Na+].[Na+].[Na+].[O]=[V]([O-])([O-])[O-] [Sodium orthovanadate, reference compound] |  |  | 244.8%
7 |  |  |  |  |  |  | 8.7% | Ammonium molybdate tetrahydrate [reference compound] |  |  | 
